Assay results: PubChem BioAssay (NCI)
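Dose response: 5 concentrations. Exposure: 48 h. Format: 96-well plates. Endpoint: linear interpolation; highest concentration if not reached. GI50: concentration for 50% inhibition of growth. At the TGI there is no net growth.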

Assays:
Assay in all cases: inhibition of tumour cell growth, NCI panel, 48 h
HCT-116 colon = test system: HCT-116 colon
T-47D breast = test system: T-47D breast
MOLT-4 leukemia = test system: MOLT-4 leukemia
SN12C renal = test system: SN12C renal
NCI-H460 lung = test system: NCI-H460 lung
COLO 205 colon = test system: COLO 205 colon
K-562 leukemia = test system: K-562 leukemia
PC-3 prostate = test system: PC-3 prostate
SNB-19 CNS = test system: SNB-19 CNS
OVCAR-8 ovarian = test system: OVCAR-8 ovarian
A549 NSCLC = test system: A549 NSCLC
SF-268 CNS = test system: SF-268 CNS
HOP-62 NSCLC = test system: HOP-62 NSCLC
CAKI-1 renal = test system: CAKI-1 renal
NCI/ADR-RES ovarian = test system: NCI/ADR-RES ovarian
MDA-MB-435 = test system: MDA-MB-435
SF-539 CNS = test system: SF-539 CNS
M14 melanoma = test system: M14 melanoma
MALME-3M melanoma = test system: MALME-3M melanoma
OVCAR-5 ovarian = test system: OVCAR-5 ovarian
SR leukemia = test system: SR leukemia
786-0 renal = test system: 786-0 renal
HOP-92 NSCLC = test system: HOP-92 NSCLC
NCI-H23 lung = test system: NCI-H23 lung
SNB-75 CNS = test system: SNB-75 CNS
HT29 colon = test system: HT29 colon
SK-MEL-2 melanoma = test system: SK-MEL-2 melanoma
MCF7 breast = test system: MCF7 breast
UO-31 renal = test system: UO-31 renal
U251 CNS = test system: U251 CNS
MDA-MB-231 breast = test system: MDA-MB-231 breast
SK-OV-3 ovarian = test system: SK-OV-3 ovarian
HCC-2998 colon = test system: HCC-2998 colon
KM12 colon = test system: KM12 colon
SK-MEL-28 melanoma = test system: SK-MEL-28 melanoma
RXF 393 renal = test system: RXF 393 renal
TK-10 renal = test system: TK-10 renal
UACC-257 melanoma = test system: UACC-257 melanoma
HCT-15 colon = test system: HCT-15 colon
ACHN renal = test system: ACHN renal
HS 578T breast = test system: HS 578T breast
HL-60(TB) leukemia = test system: HL-60(TB) leukemia
NCI-H522 lung = test system: NCI-H522 lung
NCI-H226 lung = test system: NCI-H226 lung
CCRF-CEM leukemia = test system: CCRF-CEM leukemia

## CC1(C)C2CCC13C(=O)C1OC3(C2)C2C(=O)c3ccccc3C(=O)C12 (stereo not given)
HCT-116 colon
  GI50: > 100 µM
  TGI: > 100 µM
T-47D breast
  GI50: > 100 µM
  TGI: > 100 µM
MOLT-4 leukemia
  GI50: > 100 µM
  TGI: > 100 µM
SN12C renal
  GI50: > 100 µM
  TGI: > 100 µM
NCI-H460 lung
  GI50: > 100 µM
  TGI: > 100 µM
COLO 205 colon
  GI50: > 100 µM
  TGI: > 100 µM
K-562 leukemia
  GI50: > 100 µM
  TGI: > 100 µM
PC-3 prostate
  GI50: 77.2 µM
  TGI: > 100 µM
SNB-19 CNS
  GI50: > 100 µM
  TGI: > 100 µM
OVCAR-8 ovarian
  GI50: > 100 µM
  TGI: > 100 µM
A549 NSCLC
  GI50: > 100 µM
  TGI: > 100 µM
SF-268 CNS
  GI50: > 100 µM
  TGI: > 100 µM
HOP-62 NSCLC
  GI50: > 100 µM
  TGI: > 100 µM
CAKI-1 renal
  GI50: 21.9 µM
  TGI: 72.8 µM
NCI/ADR-RES ovarian
  GI50: 12.1 µM
  TGI: > 100 µM
MDA-MB-435
  GI50: > 100 µM
  TGI: > 100 µM
SF-539 CNS
  GI50: > 100 µM
  TGI: > 100 µM
M14 melanoma
  GI50: > 100 µM
  TGI: > 100 µM
MALME-3M melanoma
  GI50: 39.7 µM
  TGI: > 100 µM
OVCAR-5 ovarian
  GI50: > 100 µM
  TGI: > 100 µM
SR leukemia
  GI50: > 100 µM
  TGI: > 100 µM
786-0 renal
  GI50: > 100 µM
  TGI: > 100 µM
HOP-92 NSCLC
  GI50: > 100 µM
  TGI: > 100 µM
NCI-H23 lung
  GI50: > 100 µM
  TGI: > 100 µM
SNB-75 CNS
  GI50: > 100 µM
  TGI: > 100 µM
HT29 colon
  GI50: > 100 µM
  TGI: > 100 µM
SK-MEL-2 melanoma
  GI50: > 100 µM
  TGI: > 100 µM
MCF7 breast
  GI50: > 100 µM
  TGI: > 100 µM
UO-31 renal
  GI50: > 100 µM
  TGI: > 100 µM
U251 CNS
  GI50: > 100 µM
  TGI: > 100 µM
MDA-MB-231 breast
  GI50: 2.44 µM
  TGI: 7.98 µM
SK-OV-3 ovarian
  GI50: > 100 µM
  TGI: > 100 µM
HCC-2998 colon
  GI50: > 100 µM
  TGI: > 100 µM
KM12 colon
  GI50: 82.9 µM
  TGI: > 100 µM
SK-MEL-28 melanoma
  GI50: > 100 µM
  TGI: > 100 µM
RXF 393 renal
  GI50: > 100 µM
  TGI: > 100 µM
TK-10 renal
  GI50: > 100 µM
  TGI: > 100 µM
UACC-257 melanoma
  GI50: > 100 µM
  TGI: > 100 µM
HCT-15 colon
  GI50: 79.4 µM
  TGI: > 100 µM
ACHN renal
  GI50: > 100 µM
  TGI: > 100 µM
HS 578T breast
  GI50: > 100 µM
  TGI: > 100 µM
HL-60(TB) leukemia
  GI50: > 100 µM
  TGI: > 100 µM
NCI-H522 lung
  GI50: > 100 µM
  TGI: > 100 µM
NCI-H226 lung
  GI50: > 100 µM
  TGI: > 100 µM
CCRF-CEM leukemia
  GI50: 97 µM
  TGI: > 100 µM
